Measured values as given in a melting point compilation (Tetko et al.; mined from patent text by program, amines drawn as free bases though some values may be those of a salt).

SMILES | melting point [°C]
c1cn(-c2cc(-n3ccnc3)ncn2)cn1 | 243 to 244
C=CS(=O)(=O)c1c(Cl)c(Cl)nn1C | 66 to 69
CCN(c1cc(S(C)(=O)=O)ccc1C(=O)O)S(C)(=O)=O | 199 to 200
CSC1C(=O)Nc2c(Oc3c(Cl)cccc3Cl)cccc21 (configuration not stated) | > 230
CNC(=NCCCSCn1cncc1C)NC#N | 156 to 158
O=C(O)C1CSC(C2CC3C=CC2C3)N1 (mixture of isomers) | 220
CCOc1cc(-c2cc(C(F)(F)F)nc(Cl)n2)ccc1C(F)(F)F | 89
CCc1cc2c(s1)N(C(=O)N(C)C)CCN=C2c1ccccc1 | 237 to 238
COn1cnc2c(N)nc3ccccc3c21 | 238 to 240
Cc1ccc2cc(-c3ccc4ccc5cccc6ccc3c4c56)ccc2n1 | 133
CC(C)(C)OC(=O)N1CCC(C(=O)c2cccs2)CC1 | 154 to 156
Cc1cc2cn[nH]c(=O)c2n1CC(C)C | 188 to 191
CNc1nc(Cl)nc2c1ncn2C1CC(F)C(CO)O1 (configuration not stated) | 181 to 182
COc1cc2c(cc1OC)C(c1cc(N)ccc1Cl)=NN=C(C)C2 | 188 to 190
N#Cc1ncn2c1[C@@H]1CCCN1C(=O)c1c(Cl)cccc1-2 | 237 to 238
CSc1c(O[C@H]2CC[C@H](N)CC2)ccc2[nH]ncc12 | 138 to 140
CCCCCCCCCCCCCCCCCCOCC(COC(c1ccccc1)(c1ccccc1)c1ccccc1)OS(=O)(=O)c1ccc(C)cc1 (configuration not stated) | 52 to 53
CN1CCNC(=O)C1c1ccc(N)cc1 (configuration not stated) | 153 to 154
COc1ccc2c(c1)CCC1C2CCC2(C)C(OC(C)(C)C)CCC12 (configuration not stated) | 91 to 92.5
Nc1ccc(SCc2cnc3ccccn23)cc1 | 119 to 121
Cc1nnc(-c2sc(N3CCN(Cc4ccc(C(F)(F)F)cc4)C3=O)nc2C)[nH]1 | 273 to 274

SMILES | melting point [°C]
CCOC(=O)c1cc(CCCOCCCCCCNCC(O)c2cc(Cl)c(N)c(Cl)c2)ccn1 (configuration not stated) | 68 to 70
CCCc1cc(-c2ccc(Cl)cc2)nc2c(I)cnn12 | 108 to 110
Nc1cc(F)c(F)cc1C(=O)c1ccccc1 | 100 to 101
CC(=NNC(=S)NCCN1CCOCC1)c1ccccn1 | 168 to 169
COc1cccc2c1nc(C(F)F)n2-c1nc(Nc2ccncn2)nc(N2CCOCC2)n1 | 234 to 236
CCCCn1c(O)cc(C)c(C#N)c1=O | 218 to 222
CCN1c2ncccc2C(=NC#N)Nc2c(C)cc(C)nc21 | 230 to 233
COc1c(N2CC[C@@H](O)[C@H](C)C2)c(F)c(N)c2c(=O)c(C(=O)O)cn(C3CC3)c12 (relative stereo) | 240 to 244
CO[C@H]1O[C@@H](C)[C@@H]2C(=O)[C@H]3CCCC[C@@H]3C[C@H]12 | 86 to 87
CS(=O)(=O)c1ccc(-n2nc(C(F)(F)F)cc2-c2ccc(-c3cscn3)c(Cl)c2)cc1F | 108 to 110
CCOP(=O)(CNC(=O)Nc1c(C(C)C)cccc1C(C)C)OCC | 132 to 134
CCc1c(N)c(C(N)=O)nn1Cc1cccnn1 | 177 to 185
O=NSC1(CCO)C2CC3CC(C2)CC1C3 (configuration not stated) | 77 to 79
Nc1cccc2snnc12 | 67
Cc1c(CO)oc2c(Br)cccc12 | 103
Cc1coc(Cc2ccc(N)cc2)n1 | 84 to 85
CCc1nc2c(c(C)c(C)n3nnnc23)n1CCOCCNC(=O)CCCCl | 149 to 151
Clc1ncccc1-c1nnsc1-c1cccnc1Cl | 146 to 148
COc1cc(C[NH+]([O-])C(=O)C(F)(F)F)ccn1 (configuration not stated) | 176 to 178
CC[C@@H](C)[C@H](CC(C(=O)O)C(=O)O)C(=O)OC | 98
CC(C)[C@@H]1CC[C@@H](C)C[C@H]1OCC(=O)N(C)CCO | 65 to 66

The next lines start with the values.

melting point [°C] | SMILES
231 to 232 | O=C(Nc1ccc(F)c(F)c1)c1cc(-c2ccc(F)cc2F)ccc1O
237 to 238 | Cc1nc2c3c(c(C(=O)NCCCO)cc2n1C)CCC1(Cc2ccccc2C1)N3
> 310 | O=C(O)c1ccc2c([N+](=O)[O-])c(O)c(O)cc2c1
145 to 148 | Cc1cc(C)c2cccc(OCc3c(C)ccc(N(C)C(=O)CN)c3C)c2n1
225 to 227 | O=C1CNC(=O)C(CSC(c2ccccc2)(c2ccccc2)c2ccccc2)N1 (configuration not stated)
190 to 193 | N#CC(=C(Nc1cc(C(F)(F)F)cc(C(F)(F)F)c1)NC1CCC1)S(=O)(=O)c1ccc(Cl)cc1
144 to 145 | COC(=O)c1cc2c(s1)[C@@H](N1CCCCC1=O)[C@H](OCc1ccccc1)C(C)(C)O2 (relative stereo)
90 to 94 | CCOC(=O)c1ccc2c(c1)c(C#Cc1ccccc1)nn2CCC#N
108 | OC(CCl)(Cc1ccc(Cl)cc1)c1ccc2c(c1)Cc1cc(Cl)ccc1-2 (configuration not stated)
185 | CCC1(CC)O[C@@H](C(=O)O)[C@H](c2ccccc2)N1C(=O)OC(C)(C)C
265 to 270 | COc1cc(C(N)=O)ccc1-c1nc2cc3c(cc2[nH]1)NC(=O)C3(C)C
84 to 85 | OCCOc1ccc(C2CCc3ccccc3O2)cc1 (configuration not stated)
160 to 162 | COc1ccc(Sc2ccc3[nH]cc(C4CCN(C)CC4)c3c2)cc1
203 to 205 | CCN1C(=O)C2=C(c3cccc(Cl)c3)N(CC)C(=O)C2=C1c1cccc(Cl)c1
211 to 214 | Cc1cc(-c2ccccc2O)n(-c2ccccc2)n1
229 to 230 | CCOC(=O)c1cn(-c2c(O)cccc2O)cn1
85 | COc1cc2c(cc1OCc1ccccc1)C(C#N)C2 (configuration not stated)
94 to 95 | CC(=O)OC1C(OC(=O)c2ccccc2)C=C(C)C(=O)CC1(C)C (configuration not stated)
170 to 172 | Nc1cc(CCC(=O)N(c2ccccc2)c2ccccc2)ccc1O
166 | CCOC(=O)c1c(O)c2c(C)csc2n(Cc2ccccc2)c1=O

melting point [°C] | SMILES
210 to 212 | Oc1cc(C(F)(F)F)ccc1-c1cc(Oc2ccc3cccnc3c2)ncn1
116 to 117 | COC(=O)CC1COc2cc(OCc3csc(-c4ccccc4)n3)ccc21 (configuration not stated)
221 to 224 | COc1cc2c(Nc3ccc(Cl)cc3F)ncnc2cc1OCc1ccnc(C)c1
134 to 135 | C=CCON=C(CC)C1=C(O)CC(c2ccc(NS(C)(=O)=O)cc2)CC1=O (configuration not stated)
107 | O=C1C(CCC(O)c2ccc(F)cc2)C(c2ccc(-c3cccc(O)c3)cc2)N1c1ccc(F)cc1 (configuration not stated)
64 to 67 | COC(=O)c1ccc(C(OC(C)=O)OC(C)=O)cc1
68 | CCOC(=O)Cc1ccc(-c2ccc(OC)cc2)cc1
156 to 160 | CN1CCN(c2cccc3ccc(NC(=O)c4ccc(O)cc4)cc23)CC1
165 to 167 | CC(=O)N1CCCC2(Cc3cc([N+](=O)[O-])ccc3O2)C1 (configuration not stated)
233 to 235 | Oc1ccc2c(c1)CCc1c-2cc2ccc(O)cc2c1C1CCCC1
188 | CCc1ccc2c(c1)C=Cc1cc(C)ccc1C2c1cn(-c2ccnc(N(C)CC(=O)Nc3nc(CC(=O)O)cs3)n2)c(=O)[nH]c1=O (configuration not stated)
139 to 140 | CC(=O)Oc1ccc2c(c1)C(C)c1cc(OC(C)=O)ccc1-2
79 to 81 | CCN(CC)C(=O)c1cc2cc(Br)ccc2o1
192 to 194 | COC(=O)c1ccc(N2C(=O)CCC2(CO)CO)c(N)c1
266 to 267 | CSc1ccc2c(c1)Cc1ccc(C(=O)O)cc1O2
175 to 176 | Cn1cc(-c2ccncc2)cc(N)c1=O
171 to 172 | O=C(Nc1cccc(C(F)(F)F)c1)c1ccccc1NCc1ccc(=O)[nH]c1
147 to 150 | Cc1ccc(-c2ccc(S(C)(=O)=O)c(F)c2)n1-c1ccc(-c2ccoc2)cc1
88 to 90 | CC(=O)OCCN1CC(c2ccccc2)NC1=O (configuration not stated)
120 to 122 | CCc1nccn1CCCNC(=O)c1ccc(Cl)cc1

melting point [°C] | SMILES
69 to 70 | C=CCOc1ccc2ccc(OCC(=O)OC)cc2c1
168 to 170 | CC(C)(C)OC(=O)c1ncn2c1C(C)(C)N(C(=O)N1CCCC1)c1cc(F)ccc1-2
231 to 233 | O=c1c2cc(F)c(N3CCCC3)nc2n(-c2ccc(C(F)(F)F)cc2)c(=O)n1OCc1ccccc1
76.5 to 78 | CC(C)C(=O)CC(=O)c1ccc(C(=O)c2ccccc2)cc1
115 to 117 | NS(=O)(=O)c1cc(C(=O)OCC(=O)N2CCC(CO[N+](=O)[O-])CC2)c(NCc2ccco2)cc1Cl
142 to 144 | N#Cc1ccc(C(=O)NC(=S)NCCc2ccccc2)cc1
197 to 198 | Cc1nc(-n2ccc(C(F)(F)F)cc2=O)sc1C(=O)NCc1ccccc1
225 to 227 | C=CC(=O)NCC(=O)Nc1cc(Cl)c(C)c(Cl)c1O
128 to 130 | CCC(OCc1ccc(-c2ccc(Cl)cc2)cc1)(C(=O)O)c1ccccc1 (configuration not stated)
129 to 131 | Cc1ccc(OCCCN2CCN(c3ccc(Cl)nn3)CC2)cc1
158 to 159 | O=C(O)CCc1cn(Cc2ccc3cc(OCc4cccnc4)ccc3c2)cc1-c1ccccc1
222 to 223 | N#Cc1ccc(OCc2ccc(Cl)c(Cl)c2)cc1
98 | Cc1cc(-n2ccnc2)c2cccc(OCc3c(Cl)ccc(S(=O)(=O)N4CCC[C@H]4C(=O)N4CCN(C(=O)OC(C)(C)C)CC4)c3Cl)c2n1
151 to 152 | CCCCOc1c(CNC(=O)OC(C)(C)C)n(CC2CC2)c(=O)c2ccc(C=O)cc12
250 | NC(Cc1cc2nccnc2cc1CP(=O)(O)O)C(=O)O (configuration not stated)
122 | CCOC(=O)C1=C(C)NN=C(CC)C1c1cccc2ccccc12 (configuration not stated)
236 to 238 | O=c1[nH]nc(-c2cc(Cl)ccc2O)n1-c1ccc(C(F)(F)F)cc1
51 to 54 | COC(=O)CC(=O)NCc1ccccc1
285 to 286 | COc1cc(C(=O)NC2CC(C)(C)N(C)C(C)(C)C2)ccc1-c1nc2cc(Cl)c(Cl)cc2[nH]1
176 to 177 | C=CCOC(=O)c1ccc(NC(=O)C(=NO)c2ccc3c(c2)C(C)(C)CCC3(C)C)cc1
